This is an account of results in PMC9820345, “Metal Complexes of a 5-Nitro-8-Hydroxyquinoline-Proline Hybrid with Enhanced Water Solubility Targeting Multidrug Resistant Cancer Cells” (International Journal of Molecular Sciences, 2022).

The subject of assay [1] is Enterococcus faecalis (ATCC 29212). In words: Antibacterial effect, MIC determination. The note with it: visual inspection, read-out: minimum inhibitory concentration (MIC). In kind it is cell-based. As for the experimental part:
(§1) Escherichia coli (ATCC 25922), Klebsiella pneumoniae (ATCC 49618) were used as Gram-negative strains; and Staphylococcus aureus (ATCC 25923, methicillin-resistant (MRSA)), and Enterococcus faecalis (ATCC 29212) strains were applied as Gram-positive bacterial cultures in the experiments. MIC values of the complexes were determined in 96-well plates based on the Clinical and Laboratory Standard Institute guidelines (CLSI guidelines). The stock solutions of the compounds (dissolved in PBS buffer using 5 mM concentration) were diluted in 100 μL of Mueller Hinton Broth. Then, 10^−4 dilution of an overnight bacterial culture in 100 μL of medium was added to each well, with the exception of the medium control wells.

The test system of assay [2] is Klebsiella pneumoniae (ATCC 49618). In words: Antibacterial effect, MIC determination. It counts as cell-based. The note with it: visual inspection, read-out: minimum inhibitory concentration (MIC). The method, then: as §1
In assay [3] the test system is Escherichia coli (ATCC 25922). In words: Antibacterial effect, MIC determination. In kind it is cell-based. The note with it: visual inspection, read-out: minimum inhibitory concentration (MIC). As for the experimental part: as §1
Assay [4] has as its system Staphylococcus aureus (ATCC 25923, methicillin-resistant (MRSA)). Put plainly: Antibacterial effect, MIC determination. It counts as cell-based. The conditions noted are these: methicillin-resistant S. aureus (MRSA), 18 h, visual inspection, read-out: minimum inhibitory concentration (MIC). As for the experimental part:
as §1

The test system of the next assay is Colo320. In words: In vitro cytotoxicity, Colo320 cells (MTT). The conditions noted are these: for IC50: 72 h exposure; for Selectivity ratio IC50 (Colo205)/IC50 (Colo320): calculated from IC50 values in Table 4. In kind it is cell-based, human. The text has this: (§2) Cell lines: all cell culture reagents were obtained from Sigma-Aldrich; plasticware was purchased from Sarstedt (Nümbrecht, Germany); Human colon Colo205 (chemo-sensitive, ATCC-CCL-222) and Colo320 (Pgp/MDR1-expressing, doxorubicin-resistant, ATCC-CCL-220.1) adenocarcinoma cell lines were purchased from LGC Promochem, Teddington, UK; MES-SA and MES-SA/Dx5 uterine sarcoma cell lines were obtained from ATCC, where they were characterized by DNA fingerprinting. The expression of the Pgp efflux pump of MES-SA/Dx5 was proven by Western blot analysis in our former report, and was also reported for the Colo320 cells. The MES-SA and MES-SA/Dx5 cells used in this study were previously engineered to express the fluorescent proteins mCherry and eGFP, respectively, by lentiviral transduction.
(§3) The colon adenocarcinoma cells were cultured in RPMI 1640 medium supplemented with 10% heat-inactivated fetal bovine serum, 2 mM L-glutamine, 1 mM sodium pyruvate, and 100 mM HEPES. The cells were incubated at 37 °C, in a 5% CO2, 95% air atmosphere.
(§4) Cytotoxicity assays: The tested compounds were dissolved in PBS buffer to prepare 5 mM stock solutions, which were diluted in complete culture medium.
(§5) In the case of the Colo205 and Colo320 cells, two-fold serial dilutions were prepared in 100 μL medium. The semi-adherent colon adenocarcinoma cells were treated with Trypsin-Versene (EDTA) solution. They were adjusted to a density of 1 × 10^4 cells in 100 μL of RPMI 1640 medium and were added to each well, with the exception of the medium control wells. The final volume of the wells containing compounds and cells was 200 μL. The plates containing Colo205 and Colo320 cells were incubated at 37 °C for 72 h; at the end of the incubation period, 20 μL of 3-(4,5-dimethyl-2-thiazolyl)-2,5-diphenyl-2H-tetrazolium bromide (MTT) solution (from a stock solution of 5 mg/mL) was added to each well. After incubation at 37 °C for 4 h, 100 μL of sodium dodecyl sulfate (SDS) solution (10% in 0.01 M HCI) was added to each well, and the plates were further incubated at 37 °C overnight. Cell growth was determined by measuring the optical density (OD) at 540/630 nm with a Multiskan EX plate reader (Thermo Labsystems, Cheshire, WA, USA).
(§6) Inhibition of the cell growth (expressed as IC50: inhibitory concentration that reduces by 50% the growth of the cells exposed to the tested compounds) was determined from the sigmoid curve where 100 − ((ODsample − ODmedium control)/(ODcell control − ODmedium control)) × 100 values were plotted against the logarithm of compound concentrations. Curves for the data obtained on Colo205 and Colo320 cells were fitted by GraphPad Prism software (2021, Graphpad Software, version 7.00, San Diego, CA, USA) using the sigmoidal dose–response model (comparing variable and fixed slopes). From the MES-SA cell data, the IC50 values were calculated by our custom program, written by J. Sessler in C#. The p values were calculated by Student’s t-test. The IC50 values were always obtained from at least three independent experiments.

Another assay deals with MES-SA. Put plainly: In vitro cytotoxicity, MES-SA cells (fluorescent protein readout). It counts as cell-based, human. The conditions noted are these: 144 h exposure.
Text: as §2
(§7) MES-SA cell lines were maintained in DMEM, supplemented with 10% fetal bovine serum, 5 mmol/L glutamine, and 50 units/mL penicillin and streptomycin. Cells were tested and resulted negative for mycoplasma contamination with the MycoAlert mycoplasma detection Kit (Lonza Group, Basel, Switzerland). One week prior to the cytotoxicity assays, Dx5 eGFP cells were selected in 500 nM doxorubicin for one passage to ensure the overexpression of P-glycoprotein.
as §4
(§8) In the case of the MES-SA and MES-SA/Dx5 cells, cell suspensions of the fluorescent cell lines were pre-mixed in a 1:1 ratio and seeded in 20 µL medium in a density of 2500 cells/well (1250 cells/well each) in a 384-well plate. After an overnight incubation, a serial dilution of the compounds was added to the plate in a final volume of 60 µL. The P-gp inhibitor tariquidar was added to the cells 15 min prior to the test compounds. After 144 h of incubation, plates were measured for the fluorescent intensity of mCherry (EX/EM: 585 nm/610 nm) and eGFP (EX/EM: 485 nm/510 nm). Cell seeding, aspiration of medium, and addition of drugs were performed by a Hamilton StarLet automated liquid handling robot.
as §6

For another assay, the system named is Colo205. Put plainly: In vitro cytotoxicity, Colo205 cells (MTT). It counts as cell-based, human. The conditions noted are these: 72 h exposure.
Text: as §2, §3, §4, §5
Inhibition of the cell growth (expressed as IC50: inhibitory concentration that reduces by 50% the growth of the cells exposed to the tested compounds) was determined from the sigmoid curve where 100 − ((ODsample − ODmedium control)/(ODcell control − ODmedium control)) × 100 values were plotted against the logarithm of compound concentrations. Curves for the data obtained on Colo205 and Colo320 cells were fitted by GraphPad Prism software (2021, Graphpad Software, version 7.00, San Diego, CA, USA) using the sigmoidal dose–response model (comparing variable and fixed slopes). […]

The test system of a further assay is MES-SA/Dx5. In words: In vitro cytotoxicity, MES-SA/Dx5 cells (fluorescent protein readout). It counts as cell-based, human. The note with it: for IC50: 144 h exposure; for Selectivity ratio IC50 (MES-SA)/IC50 (MES-SA/Dx5): calculated from IC50 values in Table 4.
Text: as §2, §7, §4, §8, §6

Where two headings read alike, the source gives them in different places.

What is called IC50 is the concentration needed to halve the response being measured. Lower therefore signals greater potency in that assay.

Turning to `O=C(O)[C@@H]1CCCN1Cc1cc([N+](=O)[O-])c2cccnc2c1O` [HQNO2-L-Pro, (2S)-1-((8-hydroxy-5-nitroquinolin-7-yl)methyl)pyrrolidin-1-ium-2-carboxylate], the MIC in assay [1] (ATCC29212, 18 h) was greater than 100 µM; in assay [2] (ATCC49618, 18 h), greater than 100 µM; in assay [3] (ATCC25922, 18 h) it was greater than 100 µM; in assay [4] (Staphylococcus aureus) it was greater than 100 µM. In addition, the IC50 with Colo320 (Homo sapiens, COLO 320) came to 32.4 ± 0.4 µM; in the assay on MES-SA (Homo sapiens, MES-SA), 226 ± 17 µM; with Colo205 (Homo sapiens, COLO 205), 34 ± 1 µM; in the assay on MES-SA/Dx5 (Homo sapiens, MES-SA/Dx5), 97 ± 29 µM. Besides, the “Selectivity ratio IC50 (Colo205)/IC50 (Colo320)” value in the assay on Colo320 is given as 1.06. The “Selectivity ratio IC50 (MES-SA)/IC50 (MES-SA/Dx5)” value in the assay on MES-SA/Dx5 is 2.33.
With `CC1=C(C)[C](C)([Rh]([Cl])[O]c2c(C[NH+]3CCC[C@H]3C(=O)O)cc([N+](=O)[O-])c3cccnc23)C(C)=C1C.[Cl-]` [RhCp*-HQNO2-L-Pro, [RhCp*(HQNO2-L-Pro)Cl]Cl], the MIC in assay [1] (18 h) is listed as greater than 100 µM; in assay [2] (18 h) it was greater than 100 µM; in assay [3] (18 h), greater than 100 µM; in assay [4], 50 µM. Besides, the IC50 in the assay on Colo320 is 29.8 ± 0.2 µM; in the assay on MES-SA, 167 ± 38 µM; in the assay on Colo205, 35 ± 1 µM; in the assay on MES-SA/Dx5 it was 106 ± 8 µM. The “Selectivity ratio IC50 (Colo205)/IC50 (Colo320)” value in the assay on Colo320 is on record as 1.16. Further, the “Selectivity ratio IC50 (MES-SA)/IC50 (MES-SA/Dx5)” value with MES-SA/Dx5 is reported as 1.58.
With `Cc1ccc(C(C)C)cc1.O=C(O)[C@@H]1CCC[NH+]1Cc1cc([N+](=O)[O-])c2ccc[n+]3c2c1[O][Ru-]3[Cl].[Cl-]` [RuCym-HQNO2-L-Pro, [RuCym(HQNO2-L-Pro)Cl]Cl], the MIC in assay [1] (18 h), in assay [2] (18 h), in assay [3] (18 h) and in assay [4] was greater than 100 µM each time. Further, the IC50 in the assay with Colo320 is greater than 100 µM; with MES-SA, 166 ± 37 µM; with Colo205 it was greater than 100 µM; in the assay on MES-SA/Dx5, greater than 400 µM. Besides, the “Selectivity ratio IC50 (MES-SA)/IC50 (MES-SA/Dx5)” value in the assay on MES-SA/Dx5 was no more than 0.42.
